Reference: patent US11066369B2, “N-(pyridin-2-yl)pyridine-sulfonamide derivatives and their use in the treatment of disease” (Novartis AG, priority 2016, dated 2021)
Where a name gives a salt, the structure may show the parent alone. Read-outs that look alike come from different tables or passages of the source.

How the values were obtained:
[1] = biological target: T1, delF508-CFTR (Homo sapiens, UniProt P13569, DEL508-508); test: Measurement of delF508-CFTR functional activity in primary human bronchial epithelial cells (HBECs) using Multi-Transepithelial Clamp Circuit (MTECC-24) assay; format: cell-based; conditions: primary CF HBECs; for MTECC24 CFHBEC- Amax %: test compound added 24h before assay plus potentiator, relative to reference combination (2 μM corrector + 0.5 μM potentiator); for EC50: test compound added 24h before assay, in the presence of potentiator, mean of at least two replicates, read-out: MTECC24 CFHBEC- EC50
T1 construct: functional activity of the CFTR channel (Chloride ion transport) in patient derived primary human bronchial epithelial cells; host or cells: patient-derived primary human bronchial epithelial cells (delF508-CFTR)
Method in brief: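 Patient-derived primary delF508-CFTR HBECs, differentiated at air-liquid interface ~2 weeks, treated basolaterally with compound for 24 h, then apical and basolateral compound in HEPES pH 7.4 assay medium. Equivalent short-circuit current (Ieq) recorded on MTECC-24 with sequential amiloride, forskolin, potentiator and INH-172; normalized to 0.1% DMSO, EC50 from curve fit.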

[2] = biological target: T2, horseradish peroxidase (HRP) tagged delF508-CFTR (Homo sapiens, UniProt P13569, DEL508-508); test: Measurement of delF508-CFTR-HRP surface expression in CFBE41o- cells; format: cell-based; conditions: for Emax: read-out: DelF508-CFTR-HRP Amax %;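 as to DelF508-CFTR-HRP Amax %: percent efficacy relative to reference corrector lumacaftor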
T2 construct: expressed in transfected cells
Method in brief: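 CFBE41o- bronchial epithelial cells stably expressing delF508-CFTR with HRP in the fourth extracellular loop; expression induced 48h with 500 ng/mL doxycycline, then compounds added (top 10 μM, 10-point 3-fold series, ≤0.5% DMSO) for 24h at 37° C. Surface HRP measured by luminescence with cell-impermeant substrate; EC50 from logistic fit of triplicates, plate-normalized to lowest concentration; efficacy also relative to a reference corrector.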

[3] = delF508-CFTR-HRP surface expression, CFBE41o- cells
[4] = delF508-CFTR-HRP surface expression, CFBE41o- cells, read-out: DelF508-CFTR-HRP EC50

T2 sequence (P13569 with tags, fused parts or gaps DEL508-508): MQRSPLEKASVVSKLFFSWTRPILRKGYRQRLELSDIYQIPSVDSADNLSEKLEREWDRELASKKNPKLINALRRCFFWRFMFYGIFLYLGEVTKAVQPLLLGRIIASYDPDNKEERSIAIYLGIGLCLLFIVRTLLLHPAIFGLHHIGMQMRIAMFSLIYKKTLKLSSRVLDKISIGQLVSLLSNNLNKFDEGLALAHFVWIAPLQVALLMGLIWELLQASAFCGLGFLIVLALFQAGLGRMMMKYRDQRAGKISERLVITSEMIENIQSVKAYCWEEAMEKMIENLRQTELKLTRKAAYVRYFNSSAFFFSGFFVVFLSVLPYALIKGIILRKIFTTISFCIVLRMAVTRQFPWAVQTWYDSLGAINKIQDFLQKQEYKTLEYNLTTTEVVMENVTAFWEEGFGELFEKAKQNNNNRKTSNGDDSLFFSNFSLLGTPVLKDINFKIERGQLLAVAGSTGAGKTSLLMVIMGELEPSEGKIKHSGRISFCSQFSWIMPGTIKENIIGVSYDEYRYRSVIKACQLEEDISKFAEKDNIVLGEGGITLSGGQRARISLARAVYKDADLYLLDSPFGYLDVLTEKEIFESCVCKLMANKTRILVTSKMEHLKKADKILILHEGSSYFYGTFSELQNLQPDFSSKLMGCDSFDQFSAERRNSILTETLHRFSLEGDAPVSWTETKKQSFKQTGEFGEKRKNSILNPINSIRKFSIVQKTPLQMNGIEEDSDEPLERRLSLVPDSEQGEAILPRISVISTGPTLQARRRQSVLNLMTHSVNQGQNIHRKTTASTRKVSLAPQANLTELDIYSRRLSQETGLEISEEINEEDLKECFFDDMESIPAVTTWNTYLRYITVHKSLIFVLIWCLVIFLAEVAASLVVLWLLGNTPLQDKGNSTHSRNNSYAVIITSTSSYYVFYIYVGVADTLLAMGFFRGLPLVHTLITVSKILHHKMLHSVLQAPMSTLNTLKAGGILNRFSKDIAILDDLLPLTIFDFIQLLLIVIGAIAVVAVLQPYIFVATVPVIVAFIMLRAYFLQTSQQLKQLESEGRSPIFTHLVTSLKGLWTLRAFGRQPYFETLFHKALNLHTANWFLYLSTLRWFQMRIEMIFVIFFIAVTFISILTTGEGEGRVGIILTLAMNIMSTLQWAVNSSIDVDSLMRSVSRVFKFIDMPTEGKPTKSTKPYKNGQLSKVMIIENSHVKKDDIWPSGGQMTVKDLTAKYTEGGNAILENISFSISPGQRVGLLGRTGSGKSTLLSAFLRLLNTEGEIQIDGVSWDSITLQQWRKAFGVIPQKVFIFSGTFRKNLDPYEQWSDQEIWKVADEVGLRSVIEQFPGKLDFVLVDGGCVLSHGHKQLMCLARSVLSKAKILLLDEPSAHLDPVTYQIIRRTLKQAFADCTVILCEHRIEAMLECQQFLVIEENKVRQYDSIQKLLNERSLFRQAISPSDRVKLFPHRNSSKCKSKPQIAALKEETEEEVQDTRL
T1 sequence (P13569 with tags, fused parts or gaps DEL508-508): as above

| MTECC24 CFHBEC- Amax % [1] | EC50 [1] | Emax [2, 3] | EC50 [2, 4] | SMILES | EC50 [2] | Emax ([2]; CFBE41o-) |
| --- | --- | --- | --- | --- | --- | --- |
| 79.0% | 31.7 nM | 414% | 2830 nM | Cc1ccccc1-c1nc(NS(=O)(=O)c2cccc(N3CCN(C)CC3)n2)ccc1C(F)(F)F [Example 189, 6-(4-methylpiperazin-1-yl)-N-(6-(o-tolyl)-5-(trifluoromethyl)pyridin-2-yl)pyridine-2-sulfonamide] |  |  |
| 96.4% | 10 nM |  | 1590 nM | Cc1ccccc1-c1nc(NS(=O)(=O)c2cccc(N3CC[C@H](O)[C@H]3C)n2)ccc1C(F)(F)F [Example 314, 6-((2R,3S)-3-hydroxy-2-methylpyrrolidin-1-yl)-N-(6-(o-tolyl)-5-(trifluoromethyl)pyridin-2-yl)pyridine-2-sulfonamide] |  |  |
| 84.7% | 18.5 nM | 523% | 3200 nM | Cc1ccccc1-c1nc(NS(=O)(=O)c2cccc(N[C@@H]3CCOC[C@@H]3O)n2)ccc1C(F)(F)F (single isomer, unassigned) [Example 276] |  |  |
| 62.5% | 57.8 nM | 332% | 2680 nM | Cc1ccc(F)cc1-c1nc(NS(=O)(=O)c2cccc(N3CCNCC3)n2)ccc1C(F)(F)F [Example 152, N-(6-(5-Fluoro-2-Methylphenyl)-5-(Trifluoromethyl)Pyridin-2-yl)-6-(Piperazin-1-yl)Pyridine-2-Sulfonamide Hydrochloride] |  |  |

Continued, compound first:

| SMILES | MTECC24 CFHBEC- Amax % [1] | EC50 [1] | Emax [2, 3] | EC50 [2, 4] | EC50 [2] | Emax ([2]; CFBE41o-) |
| --- | --- | --- | --- | --- | --- | --- |
| Cc1ccc(F)cc1-c1nc(NS(=O)(=O)c2cccc(N[C@@H]3[C@H](CO)[C@H]4CC[C@@H]3O4)n2)ccc1Cl [Example 128, N-(5-chloro-6-(5-fluoro-2-methylphenyl)pyridin-2-yl)-6-(((1S,2R,3R,4R)-3-(hydroxymethyl)-7-oxabicyclo[2.2.1]heptan-2-yl)amino)pyridine-2-sulfonamide] | 61.9% | 5.3 nM | 730% | 2240 nM |  |  |
| Cc1ccccc1-c1nc(NS(=O)(=O)c2cccc(N3CC4CCC(C3)N4)n2)ccc1C(F)(F)F [Example 181, 6-(3,8-diazabicyclo[3.2.1]octan-3-yl)-N-(6-(o-tolyl)-5-(trifluoromethyl)pyridin-2-yl)pyridine-2-sulfonamide Hydrochloride] | 101.5% | 39.8 nM |  |  | 2670 nM | 454% |
| Cc1cccc(C)c1-c1nc(NS(=O)(=O)c2cccc(N3CC(C)(O)C3)n2)ccc1Cl [Example 210, N-(5-chloro-6-(2,6-dimethylphenyl)pyridin-2-yl)-6-(3-hydroxy-3-methylazetidin-1-yl)pyridine-2-sulfonamide] | 68.7% | 2.2 nM | 507% | 716 nM |  |  |
| Cc1ccc(F)cc1-c1nc(NS(=O)(=O)c2ccnc(N3CCOC[C@H]3C)c2)ccc1C(F)(F)F [Example 321, (R)—N-(6-(5-fluoro-2-methylphenyl)-5-(trifluoromethyl)pyridin-2-yl)-2-(3-methylmorpholino)pyridine-4-sulfonamide] | 49.1% | 18.3 nM | 413% | 1720 nM |  |  |
| COC(=O)C1CCN(c2cccc(S(=O)(=O)Nc3ccc(Cl)c(-c4c(C)cccc4C)n3)n2)CC1 [Example 246, methyl 1-(6-(N-(5-chloro-6-(2,6-dimethylphenyl)pyridin-2-yl)sulfamoyl)pyridin-2-yl)piperidine-4-carboxylate] | 56.3% | 51 nM | 875% | 1790 nM |  |  |
| Cc1cccc(C)c1-c1nc(NS(=O)(=O)c2cccc(N)n2)ccc1Br [Example 3, 6-amino-N-(5-bromo-6-(2,6-dimethylphenyl)pyridin-2-yl)pyridine-2-sulfonamide] | 60.3% | 1.9 nM | 688% | 1440 nM |  |  |
